Test [1] concerns the target T1, CRTh2 receptor (Homo sapiens, UniProt Q9Y5Y4).
T1 sequence (Q9Y5Y4 1-395): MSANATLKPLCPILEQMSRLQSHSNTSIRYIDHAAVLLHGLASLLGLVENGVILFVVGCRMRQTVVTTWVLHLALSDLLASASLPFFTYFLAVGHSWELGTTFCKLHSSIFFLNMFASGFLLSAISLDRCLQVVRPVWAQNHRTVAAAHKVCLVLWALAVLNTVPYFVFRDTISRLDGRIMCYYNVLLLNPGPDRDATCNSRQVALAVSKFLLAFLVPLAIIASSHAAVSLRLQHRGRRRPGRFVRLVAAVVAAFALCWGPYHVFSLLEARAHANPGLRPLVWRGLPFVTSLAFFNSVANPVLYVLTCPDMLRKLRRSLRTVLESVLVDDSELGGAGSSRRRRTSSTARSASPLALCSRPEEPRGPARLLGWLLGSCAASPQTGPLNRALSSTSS
As to the kind of experiment: CRTh2 cAMP functional assay. On the set-up: expressed in transfected cells; host or cells: CHO cells. To be noted: CHO cells stably transfected with CRTh2; 10 nM Prostaglandin D2 and 5 μM forskolin; cAMP Alphascreen. Format: cell-based. How it is done: CRTh2 cAMP Functional Assay Protocol
For each concentration value on the dose-response curve, test compounds are prepared in assay stimulation buffer/DMSO and 5 μL/well is added to an assay plate (384 well, white optiplate).
CHO cells stably transfected with the CRTh2 receptor are prepared (dissociated from a cell culture flask and washed in PBS) to a concentration of 4×10^6/mL in assay stimulation buffer and added to the assay plate ([…]).
The assay plate is incubated at room temperature on a shaker for 15 minutes.
A mix of agonist (10 nM Prostaglandin D2) and 5 μM forskolin is prepared in assay stimulation buffer and added to the assay plate (5 μL/well).
In addition, a cAMP standard is serially diluted in assay stimulation buffer and added to separate empty wells on the assay plate (20 μL/well).
The assay plate is incubated at room temperature on a shaker for 60 minutes.
A cell lysis mix (lysis buffer containing Alphascreen™ donor beads and biotinylated cAMP) is prepared under darkened conditions 60 minutes prior to addition. Alphascreen™ acceptor beads are added to the lysis mix after 60 minutes. The resulting lysis mix is added to all wells of the assay plate (40 μL/well).
The assay plate is sealed with Topseal-S™ and incubated in the dark at room temperature on a shaker for 45 minutes. The plate is then counted using a Packard Fusion™ instrument.
The resulting counts per minute are converted to nM cAMP by using the prepared cAMP standard curve. IC50 values are then determined using Prism™ software.
Background: In Alpha technology, singlet oxygen from a donor bead excites a nearby acceptor bead.

The target of test [2] is T1, CRTh2 receptor. Nature of the test: Scintillation Proximity Assay (SPA) binding assay, 3H prostaglandin D2. On the set-up: expressed in transfected cells; host or cells: K562 or CHO cells (membranes). How it is done: Scintillation Proximity Assay (SPA) Protocol
Membranes are prepared from K562 or Chinese hamster ovary (CHO) cells stably transfected with human CRTh2 receptors.
The assay is performed in a 96 well U-bottomed polypropylene plate in a final volume of 100 μL. For each concentration of test compound on the dose-response curve, the components of the assay are added sequentially as follows: test compound in DMSO/assay buffer (25 μL), ^3H prostaglandin D2 (25 μL) and CRTh2 membrane fragments (50 μL). The assay is incubated at ambient temperature with shaking for 60 minutes, and then harvested on to filter plates. The plate is dried for 2 hours, prior to addition of Micro-Scint 20™ (50 μL) and sealing with TopSeal-S™. Plates are then counted using a Packard Top Count instrument, each well being counted for 20 minutes. Ki values are determined using Sigma Plot™ software, using the Cheng-Prussoff equation.

Where [3] appears, read: membranes from K562 or CHO cells stably transfected with human CRTh2, 3H prostaglandin D2, read-out: Ki values in the SPA binding assay.

Where two headings read alike, the source gives them in different places.

In general, IC50 refers to the concentration that gives 50% inhibition. Lower therefore signals higher potency. Regarding `O=C(O)COc1ccc(Br)cc1C1CCCCC1` [Example 3, (4-Bromo-2-cyclohexylphenoxy)acetic acid], it took 190 nM to reach half-maximal inhibition against CRTh2 receptor [1] (IC50).

As usually defined, the Ki is the dissociation constant of the complex between target and ligand, obtained from inhibition or displacement. For `O=C(O)COc1ccc(Br)cc1C1CCCCCC1` [Example 5, (4-Bromo-2-cycloheptylphenoxy)acetic acid], the IC50 on CRTh2 receptor [1] was determined as 138 nM. The Ki at CRTh2 receptor [2] (setting [3]) turned out to be 70 nM.

Consider `O=C(O)COc1ccc(Cl)cc1C1CCCCCC1` [Example 2, (4-Chloro-2-cycloheptylphenoxy)acetic acid], for which the IC50 on CRTh2 receptor [1] came to 148 nM. Also, at CRTh2 receptor [2], the Ki came to 60 nM.

On CRTh2 receptor [1], `O=C(O)COc1ccc(C(F)(F)F)cc1C1CCCCC1` [Example 13, (2-Cyclohexyl-4-trifluoromethyl-phenoxy)-acetic acid] displayed an IC50 of 139 nM. At CRTh2 receptor [2] (setting [3]), the Ki came to 21 nM.

The values above are taken from patent publication US20080269335A1, “Crth2 Receptor Antagonists” (priority 2004, published 2008).
